Reference: patent US20170050957A1, “4-AMINO-6-(HETEROCYCLIC)PICOLINATES AND 6-AMINO-2-(HETEROCYCLIC)PYRIMIDINE-4-CARBOXYLATES AND THEIR USE AS HERBICIDES” (Dow AgroSciences LLC, priority 2013, published 2017)
Read-outs that look alike come from different tables or passages of the source.

Experiments:
[1] = test system: Key Broadleaf Weed and Crop Species; test: Post-emergent Test II herbicidal activity (Table 15); type: in vivo; conditions: post-emergence, 336 h, 14 d; for pest or weed control at 35 g/ha: 35 g ai/ha; for pest or weed control at 70 g/ha: 70 g ai/ha; for pest or weed control at 140 g/ha: 140 g ai/ha
Procedure, shortened: (§1)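 Visual injury rating (0 = none, 100% = complete kill) made 14 d after treatment, relative to untreated plants. Compounds in an acetone/DMSO/aqueous crop-oil/surfactant spray, at top rate and serial 1/2×-1/16× rates, were applied at 187 L/ha overhead to first-second true leaf plants raised 7-21 d in greenhouse.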

[2] = test system: Key Grass and Sedge Weeds as well as Grass Crops; test: Post-emergent Test II herbicidal activity (Table 16); type: in vivo; conditions: post-emergence, 336 h, 14 d; for pest or weed control at 35 g/ha: 35 g ai/ha; for pest or weed control at 70 g/ha: 70 g ai/ha; for pest or weed control at 140 g/ha: 140 g ai/ha
Procedure, shortened: as §1

[3] = Abutilon theophrasti, velvetleaf (Abutilon theophrasti), read-out: Visual Growth Reduction (%) 14 Days After Application, ABUTH
[4] = Amaranthus retroflexus, redroot pigweed (Amaranthus retroflexus), read-out: Visual Growth Reduction (%) 14 Days After Application, AMARE
[5] = Brassica napus, oilseed rape, canola (Brassica napus), read-out: Visual Growth Reduction (%) 14 Days After Application, BRSNN
[6] = Chenopodium album, lambsquarters (Chenopodium album), read-out: Visual Growth Reduction (%) 14 Days After Application, CHEAL
[7] = Euphorbia heterophylla, wild poinsettia (Euphorbia heterophylla), read-out: Visual Growth Reduction (%) 14 Days After Application, EPHHL
[8] = Helianthus annuus, sunflower (Helianthus annuus), read-out: Visual Growth Reduction (%) 14 Days After Application, HELAN
[9] = Cyperus esculentus, yellow nutsedge (Cyperus esculentus), read-out: Visual Growth Reduction (%) 14 Days After Application, CYPES
[10] = Echinochloa crus-galli, barnyardgrass (Echinochloa crus-galli), read-out: Visual Growth Reduction (%) 14 Days After Application, ECHCG
[11] = Oryza sativa, rice (Oryza sativa), read-out: Visual Growth Reduction (%) 14 Days After Application, ORYSA
[12] = Setaria faberi, giant foxtail (Setaria faberi), read-out: Visual Growth Reduction (%) 14 Days After Application, SETFA
[13] = Triticum aestivum, wheat, spring (Triticum aestivum), read-out: Visual Growth Reduction (%) 14 Days After Application, TRZAS
[14] = Zea mays, maize, corn (Zea mays), read-out: Visual Growth Reduction (%) 14 Days After Application, ZEAMX

Row | SMILES | pest or weed control at 35 g/ha [1, 3] | pest or weed control at 70 g/ha [1, 3] | pest or weed control at 140 g/ha [1, 3] | pest or weed control at 35 g/ha [1, 4] | pest or weed control at 70 g/ha [1, 4] | pest or weed control at 140 g/ha [1, 4] | pest or weed control at 35 g/ha [1, 5] | pest or weed control at 70 g/ha [1, 5] | pest or weed control at 140 g/ha [1, 5] | pest or weed control at 35 g/ha [1, 6] | pest or weed control at 70 g/ha [1, 6] | pest or weed control at 140 g/ha [1, 6] | pest or weed control at 35 g/ha [1, 7] | pest or weed control at 70 g/ha [1, 7] | pest or weed control at 140 g/ha [1, 7] | pest or weed control at 35 g/ha [1, 8] | pest or weed control at 70 g/ha [1, 8] | pest or weed control at 140 g/ha [1, 8] | pest or weed control at 35 g/ha [2, 9] | pest or weed control at 70 g/ha [2, 9] | further results
1 | COC(=O)c1nc(-c2ccc3ccoc3c2F)nc(N)c1OC [Compound 2.13] | 95 to 100% | 95 to 100% | 95 to 100% | 60 to 74% | 95 to 100% | 95 to 100% | 95 to 100% | 95 to 100% | 95 to 100% | 95 to 100% | 95 to 100% | 95 to 100% | 95 to 100% | 95 to 100% | 95 to 100% | 75 to 84% | 85 to 94% | 95 to 100% | 30 to 44% | 85 to 94% | pest or weed control at 140 g/ha [2, 9]: 85 to 94%; pest or weed control at 35 g/ha [2, 10]: 75 to 84%; pest or weed control at 70 g/ha [2, 10]: 95 to 100%; pest or weed control at 140 g/ha [2, 10]: 95 to 100%; pest or weed control at 35 g/ha [2, 11]: 0 to 29%; pest or weed control at 70 g/ha [2, 11]: 30 to 44%; pest or weed control at 140 g/ha [2, 11]: 30 to 44%; pest or weed control at 35 g/ha [2, 12]: 0 to 29%; pest or weed control at 70 g/ha [2, 12]: 45 to 59%; pest or weed control at 140 g/ha [2, 12]: 60 to 74%; pest or weed control at 35 g/ha [2, 13]: 0 to 29%; pest or weed control at 70 g/ha [2, 13]: 45 to 59%; pest or weed control at 140 g/ha [2, 13]: 45 to 59%; pest or weed control at 35 g/ha [2, 14]: 0 to 29%; pest or weed control at 70 g/ha [2, 14]: 30 to 44%; pest or weed control at 140 g/ha [2, 14]: 45 to 59%; melting point: 178 °C
2 | COC(=O)c1nc(-c2cc3occc3cc2F)nc(N)c1OC [Compound 2.14] | 0 to 29% | 0 to 29% | 0 to 29% | 95 to 100% | 95 to 100% | 95 to 100% | 95 to 100% | 95 to 100% | 95 to 100% | 85 to 94% | 95 to 100% | 95 to 100% | 85 to 94% | 95 to 100% | 95 to 100% | 60 to 74% | 85 to 94% | 95 to 100% | 0 to 29% | 0 to 29% | pest or weed control at 140 g/ha [2, 9]: 0 to 29%; pest or weed control at 35 g/ha [2, 10]: 0 to 29%; pest or weed control at 70 g/ha [2, 10]: 0 to 29%; pest or weed control at 140 g/ha [2, 10]: 75 to 84%; pest or weed control at 35 g/ha [2, 11]: 0 to 29%; pest or weed control at 70 g/ha [2, 11]: 0 to 29%; pest or weed control at 140 g/ha [2, 11]: 0 to 29%; pest or weed control at 35 g/ha [2, 12]: 0 to 29%; pest or weed control at 70 g/ha [2, 12]: 0 to 29%; pest or weed control at 140 g/ha [2, 12]: 0 to 29%; pest or weed control at 35 g/ha [2, 13]: 0 to 29%; pest or weed control at 70 g/ha [2, 13]: 0 to 29%; pest or weed control at 140 g/ha [2, 13]: 0 to 29%; pest or weed control at 35 g/ha [2, 14]: 0 to 29%; pest or weed control at 70 g/ha [2, 14]: 0 to 29%; pest or weed control at 140 g/ha [2, 14]: 0 to 29%; melting point: 153 °C
3 | COC(=O)c1nc(-c2cccc3occc23)c(F)c(N)c1Cl [Compound 2.15] | 45 to 59% | 75 to 84% | 95 to 100% | 95 to 100% | 95 to 100% | 95 to 100% | 45 to 59% | 75 to 84% | 85 to 94% | 95 to 100% | 95 to 100% | 95 to 100% | 0 to 29% | 0 to 29% | 0 to 29% | 45 to 59% | 75 to 84% | 75 to 84% | 0 to 29% | 0 to 29% | pest or weed control at 140 g/ha [2, 9]: 0 to 29%; pest or weed control at 35 g/ha [2, 10]: 0 to 29%; pest or weed control at 70 g/ha [2, 10]: 45 to 59%; pest or weed control at 140 g/ha [2, 10]: 75 to 84%; pest or weed control at 35 g/ha [2, 11]: 0 to 29%; pest or weed control at 70 g/ha [2, 11]: 0 to 29%; pest or weed control at 140 g/ha [2, 11]: 0 to 29%; pest or weed control at 35 g/ha [2, 12]: 0 to 29%; pest or weed control at 70 g/ha [2, 12]: 0 to 29%; pest or weed control at 140 g/ha [2, 12]: 0 to 29%; pest or weed control at 35 g/ha [2, 13]: 0 to 29%; pest or weed control at 70 g/ha [2, 13]: 0 to 29%; pest or weed control at 140 g/ha [2, 13]: 0 to 29%; pest or weed control at 35 g/ha [2, 14]: 95 to 100%; pest or weed control at 70 g/ha [2, 14]: 95 to 100%; pest or weed control at 140 g/ha [2, 14]: 95 to 100%; melting point: 100 to 103 °C
